Assays:
[1] = Selectivity ratio of Ki for Sachcharomyces cerevisiae beta carbonic anhydrase to Ki for human carbonic anhydrase-2
[2] = Selectivity ratio of Ki for Sachcharomyces cerevisiae beta carbonic anhydrase to Ki for human carbonic anhydrase-1
[3] = Inhibition of Sachcharomyces cerevisiae beta carbonic anhydrase after 15 mins by stopped-flow CO2 hydrase assay; design: species or system Saccharomyces cerevisiae
Saccharomyces cerevisiae = experiment: Antifungal activity against wild type Saccharomyces cerevisiae BY4742 assessed as growth inhibition after 48 hrs by microplate spectrophotometric analysis; format: functional; conditions: BY4742, 48 h, read-out: CC50

| SMILES | Ratio Ki [1] | Ratio Ki [2] | Ki [3] [nM] | Growth inhibition IC50 (Saccharomyces cerevisiae) [nM] |
| --- | --- | --- | --- | --- |
| N#C/C(=C\C=C\c1ccccc1)C(=O)Nc1ccc(S(N)(=O)=O)cc1 | 5.3 | 3.16 | 5.9 | – |
| N#C/C(=C\c1ccco1)C(=O)Nc1ccc(S(N)(=O)=O)cc1 | 0.72 | 0.8 | 7.6 | – |
| CC(=O)C1=NN(c2ccccc2)/C(=C(\C#N)C(=O)Nc2ccc(S(N)(=O)=O)cc2)S1 | 0.13 | 2.02 | 57.3 | – |
| CC(=O)Nc1nnc(S(N)(=O)=O)s1 [ACETAZOLAMIDE] | 0.14 | 3.02 | 82.6 | – |
| CN(C)c1ccc(/C=C(\C#N)C(=O)Nc2ccc(S(N)(=O)=O)cc2)cc1 | 6.46 | 15.8 | 3 | 6220 |
| N#C/C(=C\c1ccccc1Cl)C(=O)Nc1ccc(S(N)(=O)=O)cc1 | 7.26 | 4.91 | 8.4 | – |
| COc1cc(/C=C(\C#N)C(=O)Nc2ccc(S(N)(=O)=O)cc2)ccc1O | 1.07 | 5.87 | 5.6 | – |
| N#C/C(=C\c1ccc(O)cc1)C(=O)Nc1ccc(S(N)(=O)=O)cc1 | 13.5 | 23.6 | 2.5 | 6540 |
| COc1ccc(/C=C(\C#N)C(=O)Nc2ccc(S(N)(=O)=O)cc2)cc1OC | 2.58 | 4.34 | 7.2 | – |
| COc1cc(/C=C(\C#N)C(=O)Nc2ccc(S(N)(=O)=O)cc2)cc(OC)c1OC | 1.05 | 5.17 | 7.1 | – |
| COc1ccc(/C=C(\C#N)C(=O)Nc2ccc(S(N)(=O)=O)cc2)cc1 | 9.78 | 43 | 0.92 | 1140 |
| N#C/C(=C\c1ccc([N+](=O)[O-])cc1)C(=O)Nc1ccc(S(N)(=O)=O)cc1 | 0.29 | 2.15 | 18.6 | – |
| N#C/C(=C\c1ccc(Cl)cc1Cl)C(=O)Nc1ccc(S(N)(=O)=O)cc1 | 3.61 | 5.17 | 9.1 | – |
| N#C/C(=C\c1ccc2c(c1)OCO2)C(=O)Nc1ccc(S(N)(=O)=O)cc1 | 1.9 | 3.29 | 7.5 | – |
| COc1cc(OC)c(OC)cc1/C=C(\C#N)C(=O)Nc1ccc(S(N)(=O)=O)cc1 | 4.44 | 4.93 | 8.6 | – |
| N=c1oc2ccccc2cc1C(=O)Nc1ccc(S(N)(=O)=O)cc1 | 1.88 | 5.67 | 5.8 | – |
| N#CCC(=O)Nc1ccc(S(N)(=O)=O)cc1 | 0.7 | 6.25 | 8.7 | – |
| COc1cc(OC)c(/C=C(\C#N)C(=O)Nc2ccc(S(N)(=O)=O)cc2)c(OC)c1 | 9.85 | 37.6 | 0.68 | 730 |
| N#C/C(=C\c1ccc(O)c(O)c1)C(=O)Nc1ccc(S(N)(=O)=O)cc1 | 5.6 | 69.9 | 0.75 | 890 |
| N#C/C(=C\c1cccs1)C(=O)Nc1ccc(S(N)(=O)=O)cc1 | 0.81 | 1.6 | 3.3 | – |
| N#C/C(=N\Nc1ccccc1)C(=O)Nc1ccc(S(N)(=O)=O)cc1 | 1.3 | 5.23 | 6.5 | – |
| N#C/C(C(=O)Nc1ccc(S(N)(=O)=O)cc1)=C(\S)Nc1ccccc1 | 0.14 | 1.47 | 45.8 | – |
| COc1ccccc1/C=C(\C#N)C(=O)Nc1ccc(S(N)(=O)=O)cc1 | 0.1 | 1.02 | 69.5 | – |
